Laboratory results from article PMC7609463 (Frontiers in Pharmacology, 2020).
Entries after “also recorded” stand apart in the source; their conditions may differ. Where two headings read alike, the source gives them in different places.

What was measured:
[1] = target: T1, ZIKV NS2B-NS3 protease (ZIKVpro) (Zika virus, UniProt A0A024B7W1); test: fluorescence-based ZIKVpro protease inhibition screening assay (Bz-nKKR-AMC substrate); assay type: biochemical; conditions: for IC50: 150 nM ZIKVpro, 1 h preincubation at 37 °C, 50 μM Bz-nKKR-AMC; for inhibition at 20 µM: read-out: Inhibition Activity% (primary high-throughput screening)
T1 construct: The cDNA coding for residues 45–96 of ZIKV NS2B; the N terminus of NS3 (residues 1–177); poly-histidine tag (C); made in house; host or cells: E. coli BL21(DE3), pET28a (NcoI/XhoI)
Protocol: For initial screening, each compound was dissolved in dimethyl sulfoxide (DMSO) to obtain 20 mM stock solution. […] The reaction was started by addition of Bz-nKKR-AMC substrate at 50 µM and fluorescence readings were measured at 30 s intervals over 10 min using Enspire (Perkin Elmer, USA) at excitation wavelength(λex) at 360 nm and emission wavelength(λem) at 460 nm. Assays were carried out as triplicates at 37 °C.
The protease activity of the DMSO control was set as 100%. The protease activities with compounds were set as percentage of the DMSO control. Data was fitted using the log(inhibitor) vs. response - variable slope (four parameters) model within the graphpad prism 7.0 software.
Inhibition activity=100-[S–S0/C−C0]×100%
S: the RFUs of the test sample (enzyme, inhibitor, buffer, and substrate) after 10 min of reaction
S0: the RFUs of the tested samples at time zero.
C: the RFUs of the control (enzyme, buffer, and substrate) after 10 min of reaction
C0: the RFUs of the control at time zero

[2] = target: T2, ZIKV NS2B-NS3 protease (ZIKVpro, gZiPro) (Zika virus, UniProt A0A024B7W1); test: Octet bio-layer interferometry binding assay with biotinylated ZIKVpro (gZiPro); conditions: for binding to ZIKVpro in Octet assay: compound 50 μM; for Response (Octet binding assay): compound 50 µM, biotinylated ZIKVpro, binding profile as nm shift
T2 construct: The cDNA coding for residues 45–96 of ZIKV NS2B; the N terminus of NS3 (residues 1–177); poly-histidine tag (C); made in house; host or cells: E. coli BL21(DE3), pET28a (NcoI/XhoI)
Description: Intermolecular interactions between gZiPro and selected compounds were detected by using BLI technology on the ForteBio Octet Red system (Pall FortéBio, Inc, Menlo Park, USA). The biotinylated protein gZipro was immobilized onto super streptavidin biosensors (Pall FortéBio Inc.), and then blocked with biocytin (Sigma). […] Sensorgrams were double-referenced, corrected for solvent effects, and then fit using OctetRed user software (Pall FortéBio Inc.). The binding profile of each sample was summarized as an “nm shift” (the wavelength or spectral shift in nanometers), which represented the difference between the start and end of the kinetic cycle. Steady-state and kinetic responses were fit to a simple binding model to obtain values for association (Kon) and dissociation (Koff) rate constants and the equilibrium dissociation constant (Kd). The Langmuir’s 1:1 binding model was applied to fit the interferometry data.

[3] = tested on: CCCC[C@H](NC(=O)c1ccccc1)C(=O)N[C@@H](CCCCN)C(=O)N[C@@H](CCCCN)C(=O)N[C@@H](CCCNC(=N)N)C(=O)Nc1ccc2c(C)cc(=O)oc2c1; test: purified protein, by the assay type; conditions: other: substrate 5 to 320 µM, 150 nM protease, 37 °C, pH 7.5
Protocol: Proteolytic activity of NS2B-NS3 protease was measured using benzoyl-norleucine-lysine-lysine-arginine 7-amino-4-methylcoumarine (Bz-nKKR-AMC). Bz-nKKR-AMC substrate with starting concentration of 300 μM was serially diluted two times in reaction buffer (50 mM Tris-HCl, pH 7.5, 150 mM NaCl) and added to 96-well black plate (Costar, USA) with 150 nM protein diluted in the same buffer. For kinetics measurements, fluorescence readings were measured at 30 s interval for 5 min using Enspire (Perkin Elmer) at excitation wavelength (λex) at 360 nm and emission wavelength (λem) at 460 nm. Assays were carried out as triplicates at 37 °C. Michaelis-Menten constant (Km) was calculated by graphpad prism5.0.

ZIKVpro = conditions: 2017, read-out: IC50 against ZIKVpro, cited from earlier work
ZIKV [4] = test: protection of Vero E6 cell viability against ZIKV-induced cytopathic effect (CCK-8); assay type: cell-based, Zika virus; conditions: Vero E6 cells
Protocol: Cell viability was performed by Cell Counting Kit-8 (CCK-8) (Beyotime, China). Typically, 8×10^4 cells/ml Vero E6 cells were seeded in the wells of 96-well plate at 100 μl/well and grown for 24 h. The compound 1 μl was added to the cells, after which cells were infected with ZIKV at MOI of 0.05. Ribavirin and DMSO were used as positive and negative control, respectively. […] The absorbance at 450 nm was subsequently measured using EnSpire 2300 Multilable Reader (PerkinElmer). The inhibition rate of the tested compounds was calculated with the following equation:
Inhibition rate%=100-[ODtested compound−ODmock−infected cells/ODinfected cells−ODmock−infected cells]×100%

Vero E6 cells = test: cytotoxicity in Vero E6 cells (CCK-8); assay type: cell-based, African green monkey; conditions: 0.3125~40 μM
ZIKV [5] = test: qRT-PCR of viral RNA in ZIKV-infected Vero E6 cells; assay type: cell-based, Zika virus; conditions: dose-dependent
Protocol: To determine the viral RNA number by qRT-PCR, total intracellular RNAs were extracted from the infected cells (control and treated) by treatment with TRIzol reagent (Invitrogen, USA) according to the manufacturer’s protocol. The cDNA was synthesized using Primescript RT Master Kit (Takara, Japan). Level of viral RNA was determined by performing qRT-PCR analysis using SYBR premix Ex Taq II kit (Takara) according to the instructions. The primer sequences used for the Zika virus genes are 5’-[…]-3’ (forward) and 5’-[…]-3’ (reverse). For quantification, the 2^−ΔΔCt method was used to calculate the relative RNA levels against GAPDH.

ZIKV [6] = test: western blot of ZIKV NS3 expression in infected Vero E6 cells; assay type: cell-based, Zika virus; conditions: dose-dependent
Protocol: (§1) Vero E6 cells were seeded at a density of 2×10^5 cells per well in 6-well plate. After overnight incubation, 2 µl DMSO (Sigma-Aldrich) or 2 µl chemical compounds were added to each well at the designated concentration. Then cells were infected with ZIKV at MOI of 0.05. Ribavirin and DMSO were used as positive and negative control, respectively. After a further incubation for 72 h at 37°C, cells were lysed with 100 μl of lysis buffer (50mM Tris, 150mM NaCl, 1% NP-40, 0.5% sodium deoxycholate, pH 7.4). Cell lysate was subjected to denaturing gel electrophoresis with 10% Bis-Tris Gel. The proteins were transferred onto PVDF membranes (Millipore, USA) and immunoblotted with indicated antibodies. The following antibodies were used for the detection of proteins: Anti-NS2B antibody (GTX133308, 1:1,000, GeneTex), Anti-NS3 antibody(GTX133320, 1:1,000, GeneTex), Anti-NS4A antibody (GTX133704, 1:1,000, GeneTex), Anti-prM antibody, Anti-β actin antibody (mAbcam 8224, 1:5000, Abcam) was used as a loading control. […]
(§2) Quantification of signals on Western blots was done using the Image pro 10 (Media cybernetics, USA) Imaging and Processing Analysis Software with signaling intensity normalized to loading control. […] Membranes were imaged and quantified in 800 nm channelsin the Odyssey Infrared Imaging System using Odyssey V3.0 software (LI-COR, Lincoln, NE).

ZIKV [7] = test: western blot of viral protein in ZIKV-infected U-87 MG cells; assay type: cell-based, Zika virus; conditions: dose-dependent
ZIKV [8] = test: time-of-drug-addition assay (qRT-PCR, Vero E6); assay type: cell-based, Zika virus; conditions: ZP10 25 μM or antibody 0.1 μg/ml, Vero E6, 24 hpi
Protocol: For the pre-treatment group, Vero E6 cells were seeded 12-well plates (2.5×10^5 cells/well). […] Next, Vero E6 cells were washed with PBS once before the addition of mixture. The 600 μl mixture was added into cells for 1 h at 4°C. […] Infected cells were collected at 24 hpi. The cell lysate was collected for viral RNA copies measurement using qRT-PCR. DMSO was included as negative control. The experiments were performed in triplicate and repeated twice for confirmation.

[9] = tested on: ZIKV polyprotein precursor cleavage by ZIKVpro; test: western blot of viral polyprotein precursor processing in ZIKV-infected Vero E6 cells; assay type: cell-based, Zika virus; conditions: especially at 6.25 µM
Protocol: as §1, §2

dengue virus = tested on: dengue virus; design: method as in Constant et al., 2018; conditions: ref Constant et al., 2018; read-out: EC50 of inhibiting viral growth; cited from earlier work
viral proteinase NS2B/3 = target: viral proteinase NS2B/3; design: method as in Constant et al., 2018; conditions: ref Constant et al., 2018; read-out: IC50 of enzymatic activity of the viral proteinase; cited from earlier work

T1 sequence (A0A024B7W1 1417-1468): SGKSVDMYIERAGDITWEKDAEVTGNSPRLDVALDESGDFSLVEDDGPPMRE
T1 sequence (A0A024B7W1 1503-1679): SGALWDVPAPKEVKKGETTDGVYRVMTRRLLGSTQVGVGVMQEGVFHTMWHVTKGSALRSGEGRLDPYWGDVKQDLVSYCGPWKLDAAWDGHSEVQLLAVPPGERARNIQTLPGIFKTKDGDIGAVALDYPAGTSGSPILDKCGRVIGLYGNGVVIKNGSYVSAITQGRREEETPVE
T2 sequence (A0A024B7W1 1417-1468): as the sequence (A0A024B7W1 1417-1468) above
T2 sequence (A0A024B7W1 1503-1679): as the sequence (A0A024B7W1 1503-1679) above

merbromin [ZP1]
IC50 [1]: 9.18 µM | binding to ZIKVpro in Octet assay [2]: direct binding | Response (Octet binding assay) [2]: 1.0863

ZIKV NS2B-NS3 protease (ZIKVpro) (Zika virus ZIKV/H. sapiens/FrenchPolynesia/10087PF/2013)
Km [3]: 30.51 µM

CCCCCCCCCCCCCc1cccc(O)c1C(=O)O [ZP9]
IC50 [1]: 1.42 µM | inhibition at 20 µM [1]: 82.2% | Response (Octet binding assay) [2]: -0.0005

O=c1c(O)c(-c2cc(O)c(O)c(O)c2)oc2cc(O)cc(O)c12 [Myricetin, myricetin]
IC50 [1]: 48.7 µM | IC50 (ZIKVpro; ref Lim et al.): 22 µM | IC50 (ZIKVpro; ref Roy et al.): 1.3 µM

O=C(OC1Cc2c(O)cc(O)cc2OC1c1cc(O)c(=O)c2c(O)c(O)cc(C3Oc4cc(O)cc(O)c4CC3OC(=O)c3cc(O)c(O)c(O)c3)c2c1)c1cc(O)c(O)c(O)c1 (stereo not shown) [ZP10, theaflavin-3,3’-digallate]
ZIKV-induced CPE (cell morphology) (ZIKV [4]; 72 hpi, ZP10 6.25 µM to 25.0 µM): attenuated to a large extent | EC50 (ZIKV [4]; Zika virus, Vero C1008, MOI 0.05, CCK-8 read-out, read-out: EC50 of inhibition of ZIKV replication (CPE protection)): 7.65 µM | cytotoxicity (cell viability, CCK-8) (Vero E6 cells): minor cytotoxicity up to 40 μM; also recorded: low cytotoxicity | viral RNA copy numbers (ZIKV [5]): markedly reduced | NS3 protein expression (ZIKV [6]): markedly reduced | viral protein expression (NS3 and envelope) (ZIKV [7]): considerably reduces | effect on ZIKV entry / replication when added before or after virus adsorption (0–1 hpi) (ZIKV [8]): no effect of ZP10 on ZIKV entry | cleavage processing of polyprotein precursor (PP) [9]: impaired cleavage processing of PP

O=C1c2c(O)ccc([N+](=O)[O-])c2C(=O)c2c([N+](=O)[O-])ccc(O)c21 [ARDP006]
EC50 (dengue virus): 4.2 µM | IC50 (viral proteinase NS2B/3): 432 µM

Cc1cc2c(C(C)C)c(O)c(O)c(C=O)c2c(O)c1-c1c(C)cc2c(C(C)C)c(O)c(O)c(C=O)c2c1O [ZP4]
inhibition at 20 µM [1]: 59.7% | Response (Octet binding assay) [2]: -0.046

O=c1cc(-c2ccc(O)cc2)oc2cc(O)cc(O)c12 [Apigenin]
IC50 (ZIKVpro; ref Roy et al.): 56.3 µM

O=C(OC[C@H]1O[C@@H](OC(=O)c2cc(O)c(O)c(OC(=O)c3cc(O)c(O)c(O)c3)c2)[C@H](OC(=O)c2cc(O)c(O)c(OC(=O)c3cc(O)c(O)c(O)c3)c2)[C@@H](OC(=O)c2cc(O)c(O)c(OC(=O)c3cc(O)c(O)c(O)c3)c2)[C@@H]1OC(=O)c1cc(O)c(O)c(OC(=O)c2cc(O)c(O)c(O)c2)c1)c1cc(O)c(O)c(OC(=O)c2cc(O)c(O)c(O)c2)c1 [ZP3, tannic acid]
binding to ZIKVpro in Octet assay [2]: direct binding | Response (Octet binding assay) [2]: 0.1091
